Measured values as given in patent US8053458B2, “Dipyrazole compounds and their use as central nervous system agents” (Aventis Pharmaceuticals Inc., priority 2005, dated 2011).
Marks after values point to notes of the source that are not given here.

Key:
NMDA receptors = test: Voltage whole-cell recording: increase of NMDA-evoked current in acutely dissociated prefrontal cortical neurons; format: cell-based, rats; conditions: rat PFC neurons; for Increase of NMDA-Evoked Current, Minimal Effective Concentration: NMDA 100 μM in Mg2+-free solution, whole-cell voltage clamp; for Average percent increase in NMDA current (10 μM): compound at 10 μM, NMDA 100 μM
Protocol: (§1) Prefrontal cortical (PFC) neurons from young adult (3-5 weeks postnatal) rats are acutely dissociated using procedures similar to those described previously (Feng, et al., J Neurosci, 2001; Chen, et al., Proc Natl Acad Sci USA, 2004). After incubation of brain slices in a NaHCO3-buffered saline, PFC is dissected and placed in an oxygenated chamber containing papain (Sigma, 0.8 mg/ml) in HEPES-buffered Hank's balanced salt solution (HBSS, Sigma) at room temperature. After 40 minutes of enzyme digestion, tissue is rinsed three times in the low Ca^+2, HEPES-buffered saline and mechanically dissociated with a graded series of fire-polished Pasteur pipettes. The cell suspension is then plated into a 35 mm Lux Petri dish, which is then placed on the stage of a Nikon inverted microscope.
(§2) Whole-cell recordings of whole-cell ion channel currents employ standard voltage clamp techniques (Yan et al., Nat Neuroscience, 1999; Wang et al., J Neurosci, 2003; Tyszkiewicz et al., J. Physiol., 2004). The internal solution (inside the patch pipette) consists of (in mM): 180 N-methyl-d-glucamine (NMG), 40 HEPES, 4 MgCl2, 0.1 BAPTA, 12 phosphocreatine, 3 Na2ATP, 0.5 Na2GTP, 0.1 leupeptin, pH=7.2-7.3, 265-270 mosm/L. The external solution consists of (in mM): 127 NaCl, 20 CsCl, 10 HEPES, 1 CaCl2, 5 BaCl2, 12 glucose, 0.001 TTX, 0.02 glycine, pH=7.3-7.4, 300-305 mOsm/L. Recordings are obtained with an Axon Instruments 200B patch clamp amplifier that is controlled and monitored with an IBM PC running pCLAMP (v. 8) with a DigiData 1320 series interface (Axon instruments). Electrode resistances are typically 2-4 MΩ in the bath. After seal rupture to attain whole-cell recording conditions, series resistance (4-10 MΩ) is compensated (70-90%) and periodically monitored. The cell membrane potential is held at −60 mV.
(§3) The application of KA (200 μM) or NMDA (100 μM, in Mg^2+-free solution) evokes a partially desensitizing inward current. KA or NMDA is applied for 2 seconds every 30 seconds to minimize desensitization-induced decrease of current amplitude. Drugs are applied with a gravity-fed ‘sewer pipe’ system. The array of application capillaries (ca. 150 μm i.d.) is positioned a few hundred microns from the cell under study. Solution changes are effected by the SF-77B fast-step solution stimulus delivery device (Warner Instruments). Data are collected with PCLAMP software and analyzed with AXOGRAPH, KALEIDOGRAPH, and STATVIEW.
(§4) Compounds described herein inhibit the KA-induced rundown of AMPA current by either stabilizing the agonist-evoked current of increasing the current. Likewise, compounds described herein increase the NMDA-evoked current. The minimum effective dose (MED) was identified by determining the lowest concentration of inhibitor that was effective in each functional assay.

AMPA receptors = test: Voltage whole-cell recording: inhibition of KA-induced rundown of AMPA current in acutely dissociated prefrontal cortical neurons; format: cell-based, rats; conditions: KA 200 μM; rat PFC neurons; whole-cell voltage clamp, held at −60 mV; 0.1 μM was the lowest concentration tested
Protocol: as §1, §2, §3, §4

Row | Structure (SMILES) | Increase of NMDA-Evoked Current, Minimal Effective Concentration (NMDA receptors) [µM] | Average percent increase in NMDA current (10 μM) (NMDA receptors) [%] | Inhibition of KA-Induced Rundown of AMPA Current, Minimal Effective Concentration (AMPA receptors)
1 | Cc1cc(-c2c(C)nn(-c3cccc(Cl)c3)c2O)[nH]n1 [Example 18, 5,5′-Dimethyl-2′-(3-chlorophenyl)-2H,2′H-[3,4′]bipyrazolyl-3′-ol] | 5 | 55 | 1.0 µM
2 | Cc1cccc(-n2nc(C)c(-c3cc(C)n[nH]3)c2O)c1 [Example 15, 5,5′-Dimethyl-2′-(3-methyl-phenyl)-2H,2′H-[3,4′]bipyrazolyl-3′-ol] |  |  | 1.0 µM
3 | Cc1cc(-c2c(C)nn(-c3ccccc3)c2O)[nH]n1 [Example 25, 5,5′-Dimethyl-2′-phenyl-2H,2′H-[3,4′]bipyrazolyl-3′-ol] |  |  | 1.0 µM
4 | Cc1cc(-c2c(C)nn(-c3ccc(C(F)(F)F)cc3)c2O)[nH]n1 [Example 8, 5,5′-Dimethyl-2′-(4-trifluoromethyl-phenyl)-2H,2′H-[3,4′]bipyrazolyl-3′-ol] | 1 | 303 | 
5 | Cc1cc(-c2c(C)nn(-c3ccc(Cl)cc3)c2O)[nH]n1 [Example 5, 2′-(4-Chloro-phenyl)-5,5′-dimethyl-2H,2′H-[3,4′]bipyrazolyl-3′-ol] |  |  | 0.1 * μM
6 | Cc1cc(-c2c(C)nn(-c3ccccc3F)c2O)[nH]n1 [Example 4, 2′-(2-Fluoro-phenyl)-5,5′-dimethyl-2H,2′H-[3,4′]bipyrazolyl-3′-ol] |  |  | 0.1 * μM
